Legend:
PNPLA3 mRNA [1] = test: qRT-PCR of PNPLA3 mRNA in compound-treated primary human hepatocytes; conditions: for Relative PNPLA3 mRNA levels: mTOR pathway inhibitors, 10 μM, qRT-PCR, mean of three replicates ± standard deviation; for Relative PNPLA3 mRNA levels / PNPLA3 mRNA: human hepatocytes; for PNPLA3 mRNA expression level over time (in words) / PNPLA3 mRNA: 3 μM, normalized to GUSB; for PNPLA3 mRNA expression level over time (in words): 35 min to 20 hrs; for Primary Hepatocytes 4178 PNPLA3 (fold change in mRNA expression): donor 4178, 3 μM; for Primary Hepatocytes 4178 PNPLA3 (fold change in mRNA expression) / Primary Hepatocytes 4282 PNPLA3 (fold change in mRNA expression): relative to GUSB; for Primary Hepatocytes 4282 PNPLA3 (fold change in mRNA expression): donor 4282, 3 μM; for PNPLA3 mRNA: time point not stated; for Relative PINPLA3 mRNA: hepatocytes
PNPLA3 mRNA [2] = test: qRT-PCR of PNPLA3 mRNA in compound-treated mouse hepatocytes; type: cell-based; conditions: mouse hepatocytes, 1 μM, normalized to ACTB
COL1A1 mRNA = test: qRT-PCR of COL1A1 mRNA in human primary hepatic stellate cells; type: cell-based; conditions: for Primary Stellate cells COL1A1 (fold change in mRNA expression): 3 μM, relative to GAPDH; for Relative COL1A1 mRNA levels RQ: hepatic stellate cells
PCSK9 mRNA = test: qRT-PCR of PCSK9 mRNA in primary hepatocytes; type: cell-based, human; conditions: donor 4178, 3 μM, relative to GUSB
PNPLA3 mRNA [3] = test: qRT-PCR of PNPLA3 mRNA in human primary hepatic stellate cells; type: cell-based; conditions: for Primary Stellate cells PNPLA3 (fold change in mRNA expression): 3 μM, relative to GAPDH; for Relative PNPLA3 mRNA levels RQ: hepatic stellate cells
[4] = tested on: phosphorylated NDRG1 (pNDRG1/NDRG1); test: Western blot of phosphorylated NDRG1 in human hepatocytes; type: cell-based; conditions: 3 μM, mTORC2 pathway, time point not stated
Description: (§1) Levels of phosphorylated S6, AKT, and NDRG1 proteins were determined as compared to total S6, AKT, and NDRG1 protein. PNPLA3 mRNA expression was quantified and normalized to housekeeping gene GUSB.

[5] = tested on: phosphorylated AKT (pAKT/AKT); test: Western blot of phosphorylated AKT in human hepatocytes; type: cell-based; conditions: 3 μM; for phosphorylated AKT (pAKT/AKT) over time (in words): 35 min to 20 hrs, relative to DMSO control; for pAKT (473)/AKT: human hepatocytes, mTORC2 pathway, time point not stated
Description: as §1

[6] = tested on: phosphorylated 4EBP1 (p4EBP1c (37/46)/4EBP1c); test: Western blot of phosphorylated 4EBP1 in human hepatocytes; type: cell-based; conditions: 3 μM, mTORC1 pathway, time point not stated
[7] = tested on: phosphorylated S6 (pS6/S6); test: Western blot of phosphorylated S6 in human hepatocytes; type: cell-based; conditions: 3 μM; for phosphorylated S6 (pS6/S6) over time (in words): 35 min to 20 hrs, relative to DMSO control; for pS6/S6: human hepatocytes, mTORC1 pathway, time point not stated
Description: as §1

PNPLA3 expression = test: RNA-seq of compound-treated primary human hepatocytes; type: cell-based; conditions: PNPLA3 expression, RNA-seq
Description: Cryopreserved hepatocytes were cultured in plating media for 16 hours, transferred to maintenance media for 4 hours. Cultured on serum-free media for 2 hours, then a compound was added. The hepatocytes were maintained on the serum-free media for 16 hours prior to gene expression analysis.
Human hepatocytes cultured as described above were plated in 24-well format, adding 375,000 cells per well in a volume of 500 μl plating medium. Four hours before treatment, cells were washed with PBS and the medium was changed to either: fresh maintenance medium (complete) or modified maintenance medium.
Compound stocks were prepared at 1000× final concentration and added in a 2-step dilution to the medium to reduce risk of a compound precipitating out of solution when added to the cells, and to ensure reasonable pipetting volumes. One at a time, each compound was first diluted 10-fold in warm (about 37° C.) modified maintenance medium (initial dilution=ID), mixed by vortexing, and the ID was diluted 100-fold into the cell culture (e.g. 5.1 μl into 1 well of a 24-well plate containing 0.5 mL medium). The plate was mixed by carefully swirling and after all wells were treated and returned to the incubator overnight. If desired, separate plates/wells were treated with vehicle-only controls and/or positive controls. If using multi-well plates, controls were included on each plate. After about 18 hours, cells were harvested for further analysis, e.g., ChIP-seq, RNA-seq, ATAC-seq, etc.
The expression level of each gene was quantified with normalized FPKM (fragments per kilobase of exon per million mapped fragments). The differentially expressed genes were called using Cuffdiff v2.2.1 with q value<0.01 and log2 fold change>=1 or <=−1.
To identify small molecules that modulate PNPLA3, primary human hepatocytes were prepared as a monoculture, and at least one small molecule compound was applied to the cells.
RNA-seq was performed to determine the effects of the compounds on PNPLA3 expression in hepatocytes. Fold change was calculated by dividing the level of expression in the cell system that had been perturbed by the level of expression in an unperturbed system. Changes in expression having a p-value≤0.05 were considered significant.

Primary Hepatocytes 4178 PCSK9 (fold change in mRNA expression) (PCSK9 mRNA) | Primary Hepatocytes 4178 PNPLA3 (fold change in mRNA expression) (PNPLA3 mRNA [1]) | Primary Hepatocytes 4282 PNPLA3 (fold change in mRNA expression) (PNPLA3 mRNA [1]) | Structure (SMILES) | Relative PNPLA3 mRNA levels (PNPLA3 mRNA [1]) | Relative PNPLA3 mRNA levels (PNPLA3 mRNA [2]) | Primary Stellate cells COL1A1 (fold change in mRNA expression) (COL1A1 mRNA) | Relative COL1A1 mRNA levels RQ (COL1A1 mRNA; 0.01 μM) | Relative COL1A1 mRNA levels RQ (COL1A1 mRNA; 0.1 μM) | Relative COL1A1 mRNA levels RQ (COL1A1 mRNA; 1 μM) | Relative COL1A1 mRNA levels RQ (COL1A1 mRNA; 10 μM) | Primary Stellate cells PNPLA3 (fold change in mRNA expression) (PNPLA3 mRNA [3]) | Relative PNPLA3 mRNA levels RQ (PNPLA3 mRNA [3]; 0.01 μM) | Relative PNPLA3 mRNA levels RQ (PNPLA3 mRNA [3]; 0.1 μM) | Relative PNPLA3 mRNA levels RQ (PNPLA3 mRNA [3]; 1 μM) | Relative PNPLA3 mRNA levels RQ (PNPLA3 mRNA [3]; 10 μM) | PNPLA3 mRNA expression level over time (in words) (PNPLA3 mRNA [1]) | PNPLA3 mRNA (PNPLA3 mRNA [1]) | p-NDRG1/NDRG1 [4] | phosphorylated AKT (pAKT/AKT) over time (in words) [5] | pAKT (473)/AKT [5] | other results
0.68 | – | – | COc1ccc(-c2ccc3c(N4CCOC[C@@H]4C)nc(N4CCOC[C@@H]4C)nc3n2)cc1CO [AZD-8055] | 0.52 ± 0.16 | 0.21 ± 0.11 | 0.46 | 0.71 | 0.58 | 0.35 | 0.27 | 0.36 | 0.38 | 0.44 | 0.45 | 0.39 | – | – | – | – | – | –
0.51 | 0.49 | 0.60 | CS(=O)(=O)N1CCc2c(-c3cnc(N)nc3)nc(N3CCOCC3)nc21 [CH5132799] | – | – | 0.81 | – | – | – | – | 0.56 | – | – | – | – | decreased levels of PNPLA3 expression after 3 hours | 0.511 | 0.47 | increased at 3 hours and decreased to pre-treatment levels at 4.5 hours | 0.22 | PNPLA3 mRNA expression level over time (in words) (PNPLA3 mRNA [1]; listed as CH51332799): down regulated PNPLA3 gene expression; Relative PINPLA3 mRNA (PNPLA3 mRNA [1]; 0.1 uM): 0.940; Relative PINPLA3 mRNA (PNPLA3 mRNA [1]; 0.3 uM): 0.870; Relative PINPLA3 mRNA (PNPLA3 mRNA [1]; 1 uM): 0.743; Relative PINPLA3 mRNA (PNPLA3 mRNA [1]; 3 uM): 0.491; p4EBP1c (37/46)#/4EBP1c [6]: 0.40; phosphorylated S6 (pS6/S6) over time (in words) [7]: decreased at 1 hour; pS6/S6 [7]: 0.06
0.66 | 0.60 | 0.70 | CCNC(=O)Nc1ccc(-c2nc(N3CCOC[C@@H]3C)c3c(n2)C(C)(C)S(=O)(=O)C3)cc1 [CZ415] | 0.62 ± 0.07 | 0.20 ± 0.11 | 0.59 | 1.01 | 0.86 | 0.28 | 0.27 | 0.37 | 0.87 | 0.47 | 0.31 | 0.35 | – | – | – | – | – | –

Further lines, the molecule ahead of its results:

Structure (SMILES) | Primary Hepatocytes 4178 PCSK9 (fold change in mRNA expression) (PCSK9 mRNA) | Primary Hepatocytes 4178 PNPLA3 (fold change in mRNA expression) (PNPLA3 mRNA [1]) | Primary Hepatocytes 4282 PNPLA3 (fold change in mRNA expression) (PNPLA3 mRNA [1]) | Relative PNPLA3 mRNA levels (PNPLA3 mRNA [1]) | Relative PNPLA3 mRNA levels (PNPLA3 mRNA [2]) | Primary Stellate cells COL1A1 (fold change in mRNA expression) (COL1A1 mRNA) | Relative COL1A1 mRNA levels RQ (COL1A1 mRNA; 0.01 μM) | Relative COL1A1 mRNA levels RQ (COL1A1 mRNA; 0.1 μM) | Relative COL1A1 mRNA levels RQ (COL1A1 mRNA; 1 μM) | Relative COL1A1 mRNA levels RQ (COL1A1 mRNA; 10 μM) | Primary Stellate cells PNPLA3 (fold change in mRNA expression) (PNPLA3 mRNA [3]) | Relative PNPLA3 mRNA levels RQ (PNPLA3 mRNA [3]; 0.01 μM) | Relative PNPLA3 mRNA levels RQ (PNPLA3 mRNA [3]; 0.1 μM) | Relative PNPLA3 mRNA levels RQ (PNPLA3 mRNA [3]; 1 μM) | Relative PNPLA3 mRNA levels RQ (PNPLA3 mRNA [3]; 10 μM) | PNPLA3 mRNA expression level over time (in words) (PNPLA3 mRNA [1]) | PNPLA3 mRNA (PNPLA3 mRNA [1]) | p-NDRG1/NDRG1 [4] | phosphorylated AKT (pAKT/AKT) over time (in words) [5] | pAKT (473)/AKT [5] | other results
Cc1nc(NC(=O)N2CCC[C@H]2C(N)=O)sc1-c1ccnc(C(C)(C)C(F)(F)F)c1 [Alpelisib (BYL719), Alpelisib] | 0.67 | 0.80 | 0.69 | – | – | 1.16 | – | – | – | – | 0.94 | – | – | – | – | largely did not change | 0.971 | 1.11 | largely did not change | 0.34 | PNPLA3 mRNA expression level over time (in words) (PNPLA3 mRNA [1]; listed as Alpenisib): did not lead to decreased PNPLA3 expression; p4EBP1c (37/46)#/4EBP1c [6]: 0.61; phosphorylated S6 (pS6/S6) over time (in words) [7]: increased at 2 hours, then decreased; pS6/S6 [7]: 1.11
COc1nc(N)nc2c1ncn2[C@@H]1O[C@H](COP(=O)(N[C@@H](C)C(=O)OCC(C)(C)C)Oc2cccc3ccccc23)[C@@H](O)[C@@]1(C)O (stereo partly shown) [BMS-986094] | – | – | – | – | – | – | – | – | – | – | – | – | – | – | – | – | – | – | – | – | Fold change (Log 2) vs untreated (PNPLA3 expression): −0.69
CO[C@H]1C[C@@H]2CC[C@@H](C)[C@@](O)(O2)C(=O)C(=O)N2CCCC[C@H]2C(=O)O[C@H]([C@H](C)C[C@@H]2CC[C@@H](OCCO)[C@H](OC)C2)CC(=O)[C@H](C)/C=C(\C)[C@@H](O)[C@@H](OC)C(=O)[C@H](C)C[C@H](C)/C=C/C=C/C=C/1C [Everolimus] | 0.66 | 0.60 | 1.00 | 0.98 ± 0.17 | 0.31 ± 0.10 | 0.93 | 1.07 | 1.01 | 1.12 | 1.19 | 0.36 | 0.64 | 0.47 | 0.56 | 0.44 | – | – | – | – | – | –

— patent publication US20220107328A1, “METHODS OF TREATING LIVER DISEASES” (Camp4 Therapeutics Corporation, priority 2018, published 2022)
